Measured values published in article PMC2222910 (The Journal of General Physiology, 1999).

Target: T1, P2X2 purinoceptor (Rattus norvegicus, UniProt P49653)
T1 sequence (P49653 1-472): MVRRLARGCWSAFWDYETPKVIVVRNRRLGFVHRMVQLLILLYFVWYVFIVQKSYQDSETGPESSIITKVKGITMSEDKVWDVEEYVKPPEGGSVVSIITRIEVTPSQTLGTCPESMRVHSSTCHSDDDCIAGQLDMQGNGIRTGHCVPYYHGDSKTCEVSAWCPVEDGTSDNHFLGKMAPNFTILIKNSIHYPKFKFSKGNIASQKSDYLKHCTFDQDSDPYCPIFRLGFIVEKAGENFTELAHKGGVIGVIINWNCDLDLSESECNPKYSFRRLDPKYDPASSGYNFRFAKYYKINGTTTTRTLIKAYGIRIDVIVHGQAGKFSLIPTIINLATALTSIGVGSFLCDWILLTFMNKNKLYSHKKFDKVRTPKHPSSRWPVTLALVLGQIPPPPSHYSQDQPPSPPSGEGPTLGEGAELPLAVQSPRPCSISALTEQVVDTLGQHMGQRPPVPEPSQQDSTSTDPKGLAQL
Test: single channel patch clamp of outside-out patches, Xenopus oocytes
Format: cell-based

## Nc1ncnc2c1ncn2[C@@H]1O[C@H](COP(=O)(O)OP(=O)(O)OP(=O)(O)O)[C@@H](O)[C@H]1O [ATP]
  EC50: 11.2 µM
